Laboratory results as given in publication PMC7429354, “Potentiating TMEM16A does not stimulate airway mucus secretion or bronchial and pulmonary arterial smooth muscle contraction” (FASEB BioAdvances, 2020).

Tests used:
TMEM16A [1] = biological target: T1, TMEM16A (Rattus norvegicus, UniProt D4A915); test: QPatch automated whole-cell patch clamp, recombinant channel (potentiator, maximum […] efficacy); assay type: cell-based
T1 construct: gene Ano1; full-length (NM_01107564.1), stably expressed in a cell line
T1 sequence (D4A915 1-1105): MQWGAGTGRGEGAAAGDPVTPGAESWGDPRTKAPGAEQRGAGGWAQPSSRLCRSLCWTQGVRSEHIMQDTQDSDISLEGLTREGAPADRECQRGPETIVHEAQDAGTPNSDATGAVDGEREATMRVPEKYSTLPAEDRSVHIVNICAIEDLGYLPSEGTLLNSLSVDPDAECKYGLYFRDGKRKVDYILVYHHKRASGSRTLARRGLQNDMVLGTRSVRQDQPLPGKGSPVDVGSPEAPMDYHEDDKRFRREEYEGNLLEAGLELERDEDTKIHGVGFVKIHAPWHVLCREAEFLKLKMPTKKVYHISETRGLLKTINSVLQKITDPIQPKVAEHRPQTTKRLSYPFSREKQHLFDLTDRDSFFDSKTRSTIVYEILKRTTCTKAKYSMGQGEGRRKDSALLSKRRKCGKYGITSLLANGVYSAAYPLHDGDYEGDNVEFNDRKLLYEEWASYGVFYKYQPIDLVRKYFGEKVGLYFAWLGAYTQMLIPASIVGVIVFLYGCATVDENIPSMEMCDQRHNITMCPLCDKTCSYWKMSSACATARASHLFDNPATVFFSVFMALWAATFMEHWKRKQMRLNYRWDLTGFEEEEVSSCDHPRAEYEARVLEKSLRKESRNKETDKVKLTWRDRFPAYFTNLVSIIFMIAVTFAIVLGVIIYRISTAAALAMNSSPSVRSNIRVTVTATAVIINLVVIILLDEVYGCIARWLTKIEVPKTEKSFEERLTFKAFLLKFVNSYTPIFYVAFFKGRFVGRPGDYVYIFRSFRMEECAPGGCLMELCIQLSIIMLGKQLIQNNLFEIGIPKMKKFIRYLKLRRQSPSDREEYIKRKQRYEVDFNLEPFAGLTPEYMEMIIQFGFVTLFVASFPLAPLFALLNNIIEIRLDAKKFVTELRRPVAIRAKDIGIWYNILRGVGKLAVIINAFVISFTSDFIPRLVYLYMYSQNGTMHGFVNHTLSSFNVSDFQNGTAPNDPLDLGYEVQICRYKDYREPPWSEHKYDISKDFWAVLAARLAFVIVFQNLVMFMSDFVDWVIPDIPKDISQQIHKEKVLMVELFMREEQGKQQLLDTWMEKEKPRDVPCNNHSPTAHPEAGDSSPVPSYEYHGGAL

TMEM16A [2] = biological target: T2, TMEM16A (Mus musculus, UniProt Q8BHY3); test: as above; assay type: cell-based
T2 construct: gene Ano1; full-length (NM_178642.5), stably expressed in CHO cells
T2 sequence (Q8BHY3 1-960): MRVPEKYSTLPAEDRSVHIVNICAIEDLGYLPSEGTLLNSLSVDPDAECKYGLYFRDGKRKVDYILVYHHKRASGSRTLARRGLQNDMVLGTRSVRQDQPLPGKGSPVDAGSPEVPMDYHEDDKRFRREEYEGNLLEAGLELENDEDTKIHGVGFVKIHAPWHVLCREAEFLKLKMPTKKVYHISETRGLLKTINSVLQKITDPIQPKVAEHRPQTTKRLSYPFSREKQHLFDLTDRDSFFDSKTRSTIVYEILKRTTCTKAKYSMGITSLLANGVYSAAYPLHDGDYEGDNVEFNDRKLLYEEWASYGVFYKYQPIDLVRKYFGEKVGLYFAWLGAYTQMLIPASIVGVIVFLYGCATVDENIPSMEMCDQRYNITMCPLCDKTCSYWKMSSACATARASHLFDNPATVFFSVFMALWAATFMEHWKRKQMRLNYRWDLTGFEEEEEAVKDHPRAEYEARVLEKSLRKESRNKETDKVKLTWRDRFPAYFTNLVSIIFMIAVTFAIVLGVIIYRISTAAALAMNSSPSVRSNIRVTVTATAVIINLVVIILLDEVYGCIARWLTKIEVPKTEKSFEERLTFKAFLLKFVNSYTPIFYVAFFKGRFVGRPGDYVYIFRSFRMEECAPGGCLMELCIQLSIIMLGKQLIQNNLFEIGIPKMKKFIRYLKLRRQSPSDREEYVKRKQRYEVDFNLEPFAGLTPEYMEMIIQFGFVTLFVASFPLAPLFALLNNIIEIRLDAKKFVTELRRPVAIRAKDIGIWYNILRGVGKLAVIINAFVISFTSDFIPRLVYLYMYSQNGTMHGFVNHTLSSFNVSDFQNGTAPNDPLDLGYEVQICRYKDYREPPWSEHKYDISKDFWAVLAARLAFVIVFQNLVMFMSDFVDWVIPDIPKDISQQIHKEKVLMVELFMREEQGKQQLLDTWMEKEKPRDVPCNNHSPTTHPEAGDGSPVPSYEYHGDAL

ETX001
EC50 (TMEM16A [1]): 88 nM

ETX004
EC50 (TMEM16A [2]): 38 nM
